Reference: ChEMBL document CHEMBL3098065, “Discovery of Pyridyl Bis(oxy)dibenzimidamide Derivatives as Selective Matriptase Inhibitors” (ACS Med Chem Lett, 2013)
≈ marks a conversion by molar mass, not a printed value.

How the values were obtained:
[1] = target: T1, Suppressor of tumorigenicity 14 protein (Homo sapiens, UniProt Q9Y5Y6); assay: Inhibition of matriptase-SP1 (615 to 855) (unknown origin) expressed in Escherichia coli BL21(DE3) using Boc-Gln-Ala-Arg-7-amido-4-methyl coumarin hydrobromide as substrate by fluorescence assay
T1 sequence (Q9Y5Y6 whole entry): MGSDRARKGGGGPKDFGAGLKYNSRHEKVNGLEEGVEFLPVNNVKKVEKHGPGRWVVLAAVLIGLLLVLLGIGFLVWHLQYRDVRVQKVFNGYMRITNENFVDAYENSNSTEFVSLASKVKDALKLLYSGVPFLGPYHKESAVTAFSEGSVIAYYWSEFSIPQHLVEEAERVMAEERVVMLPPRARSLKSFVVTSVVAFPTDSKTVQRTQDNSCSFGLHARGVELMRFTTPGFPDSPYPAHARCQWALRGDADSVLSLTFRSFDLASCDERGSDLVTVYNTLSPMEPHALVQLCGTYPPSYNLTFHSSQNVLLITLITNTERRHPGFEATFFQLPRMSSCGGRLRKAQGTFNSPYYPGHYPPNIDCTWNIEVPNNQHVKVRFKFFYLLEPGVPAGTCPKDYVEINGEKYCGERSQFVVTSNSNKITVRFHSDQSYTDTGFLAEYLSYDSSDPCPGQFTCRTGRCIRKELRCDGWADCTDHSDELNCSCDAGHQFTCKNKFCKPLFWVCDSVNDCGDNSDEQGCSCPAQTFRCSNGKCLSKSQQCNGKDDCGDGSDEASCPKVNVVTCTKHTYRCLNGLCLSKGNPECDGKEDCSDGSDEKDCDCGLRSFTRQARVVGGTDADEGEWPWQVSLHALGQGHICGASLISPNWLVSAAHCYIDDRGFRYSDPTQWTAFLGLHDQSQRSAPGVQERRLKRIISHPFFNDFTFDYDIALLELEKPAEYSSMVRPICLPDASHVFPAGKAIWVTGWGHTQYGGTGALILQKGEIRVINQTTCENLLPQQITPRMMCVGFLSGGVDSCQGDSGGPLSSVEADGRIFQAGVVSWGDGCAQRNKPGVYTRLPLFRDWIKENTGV

[2] = Metabolic stability in mouse liver microsomes assessed as compound remaining at 1 uM after 20 mins by LC-MS/MS analysis; assay type: ADME, Microsome; conditions: read-out: Stability
PC-3 [3] = assay: Cytotoxicity against human PC3 cells at 10 uM after 72 hrs by calcein AM assay relative to control; assay type: functional
DU-145 [4] = assay: Cytotoxicity against human DU145 cells at 10 uM after 72 hrs by calcein AM assay relative to control; assay type: functional
[5] = Metabolic stability in mouse liver microsomes assessed as compound remaining at 1 uM after 40 mins by LC-MS/MS analysis; assay type: ADME, Microsome; conditions: read-out: Stability
DU-145 [6] = assay: Antiinvasive activity against human DU145 cells at 10 uM incubated overnight followed by fibronectin addition measured after 48 hrs by calcein AM assay relative to control; assay type: functional; conditions: DU-145, 48 h
PC-3 [7] = assay: Antimigratory activity against human PC3 cells at 10 uM incubated overnight followed by fibronectin and HGF addition measured after 24 hrs by calcein AM assay relative to control; assay type: functional; conditions: PC-3, 24 h
DU-145 [8] = assay: Antimigratory activity against human DU145 cells at 10 uM incubated overnight followed by fibronectin addition measured after 24 hrs by calcein AM assay relative to control; assay type: functional; conditions: DU-145, 24 h
PC-3 [9] = assay: Antiinvasive activity against human PC3 cells at 10 uM incubated overnight followed by fibronectin and HGF addition measured after 48 hrs by calcein AM assay relative to control; assay type: functional; conditions: PC-3, 48 h
Prothrombin = Prothrombin (Homo sapiens, UniProt P00734); assay: Inhibition of thrombin (unknown origin) by fluorescence assay
Coagulation factor X = Coagulation factor X (Homo sapiens, UniProt P00742); assay: Inhibition of factor 10a (unknown origin) using CH3OCO-D-CHA-Gly-Arg-pNA.AcoH as substrate
[10] = target: Urokinase-type plasminogen activator (Homo sapiens, UniProt P00749); assay: Inhibition of uPA (unknown origin) using L-PyroGlu-Gly-Arg-pNA.HCl as substrate
[11] = Kinetic aqueous solubility of the compound at pH 7.4 after 16 hrs by shake flask method; assay type: physicochemical; conditions: read-out: Kinetic_solubility
Trypsin = Trypsin (Homo sapiens, UniProt P07477+P07478+P35030); assay: Inhibition of trypsin (unknown origin) by fluorescence assay; assay type: protein assay

Coagulation factor X, sequence (P00742 41-179 limits assumed): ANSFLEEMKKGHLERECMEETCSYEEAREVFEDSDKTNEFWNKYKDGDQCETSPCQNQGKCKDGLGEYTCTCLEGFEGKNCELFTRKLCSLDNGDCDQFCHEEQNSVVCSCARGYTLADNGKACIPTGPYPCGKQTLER
Coagulation factor X, sequence (P00742 235-488 limits assumed): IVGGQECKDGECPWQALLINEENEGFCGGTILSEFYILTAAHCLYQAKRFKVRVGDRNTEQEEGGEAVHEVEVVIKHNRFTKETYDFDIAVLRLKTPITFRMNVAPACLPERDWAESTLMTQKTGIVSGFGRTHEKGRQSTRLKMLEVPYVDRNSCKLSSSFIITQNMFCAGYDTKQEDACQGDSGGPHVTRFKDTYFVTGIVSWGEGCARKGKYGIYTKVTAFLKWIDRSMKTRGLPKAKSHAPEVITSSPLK

Row | Compound | Ki [1] | remaining at 20 min, 1 µM [2] | Activity (PC-3 [3]) | Activity (DU-145 [4]) | remaining at 40 min, 1 µM [5] | inhibition at 10 µM (DU-145 [6]) | inhibition at 10 µM (PC-3 [7]) | inhibition at 10 µM (DU-145 [8]) | inhibition at 10 µM (PC-3 [9]) | Ki (Prothrombin) | Ki (Coagulation factor X) | Ki [10] | solubility kinetic at 16 h [11] | Ki (Trypsin)
1 | N=C(N)c1ccc(Oc2ccc(NS(=O)(=O)c3ccc(F)cc3)c(Oc3ccc(C(=N)N)cc3)n2)cc1 | 200 nM | 89% | 0% | 0% | 86.5% | 61% | 65% | 69% | 60% | 4100 nM | 300 nM | > 10000 nM | 194 µM (≈ 101 µg/mL) | 1400 nM
2 | N=C(N)c1ccc(Oc2ccc(NS(=O)(=O)c3ccc4ccccc4c3)c(Oc3ccc(C(=N)N)cc3)n2)cc1 | 40 nM | 76.4% | 20% | 20% | 73.2% | 47% | 39% | 59% | 42% | 5800 nM | 300 nM | > 10000 nM | 191 µM (≈ 106 µg/mL) | 1300 nM
3 | N=C(N)c1ccc(Oc2ccc(C(=O)N3CCC(CCN)CC3)c(Oc3ccc(C(=N)N)cc3)n2)cc1 | 200 nM |  |  |  |  |  |  |  |  | > 2500 nM | 1500 nM | > 10000 nM |  | 3600 nM
4 | N=C(N)c1ccc(Oc2cc(C(=O)N3CCC(CCN)CC3)cc(Oc3ccc(C(=N)N)cc3)n2)cc1 | 100 nM |  |  |  |  |  |  |  |  | > 2500 nM | 200 nM | > 10000 nM |  | 2200 nM
5 | N=C(N)c1ccc(Oc2ccc(N)c(Oc3ccc(C(=N)N)cc3)n2)cc1 | 2900 nM |  |  |  |  |  |  |  |  | 4400 nM | 1200 nM | > 10000 nM |  | 5500 nM
6 | N=C(N)c1ccc(Oc2ccc(C(=O)NCCCN)c(Oc3ccc(C(=N)N)cc3)n2)cc1 | 400 nM |  |  |  |  |  |  |  |  | 2100 nM | 300 nM | > 10000 nM |  | 300 nM
7 | N=C(N)c1ccc(Oc2ccc(C(=O)N[C@H]3CC[C@H](N)CC3)c(Oc3ccc(C(=N)N)cc3)n2)cc1 | 500 nM |  |  |  |  |  |  |  |  | 3400 nM | 600 nM | > 10000 nM |  | 2000 nM
8 | N=C(N)c1ccc(Oc2cc(C(=O)N[C@H]3CC[C@H](N)CC3)cc(Oc3ccc(C(=N)N)cc3)n2)cc1 | 40 nM | 100% | 1% | 0% | 95.6% | 69% | 53% | 65% | 42% | 2500 nM | 400 nM | > 10000 nM | 196 µM (≈ 95.6 µg/mL) | 2400 nM
9 | N=C(N)c1ccc(Oc2ccc(NS(=O)(=O)c3cccc4cccnc34)c(Oc3ccc(C(=N)N)cc3)n2)cc1 | 200 nM |  |  |  |  |  |  |  |  |  |  | > 10000 nM |  | 
10 | N=C(N)c1ccc(Oc2cc(C(=O)NC3CCN(CCCN)CC3)cc(Oc3ccc(C(=N)N)cc3)n2)cc1 | 40 nM |  |  |  |  |  |  |  |  | 2900 nM | 100 nM | > 10000 nM |  | 
11 | N=C(N)c1ccccc1 [BENZAMIDINE] | 400000 nM |  |  |  |  |  |  |  |  |  |  |  |  | 
12 | N=C(N)c1ccc(Oc2cccc(Oc3ccc(C(=N)N)cc3)n2)cc1 | 9600 nM |  |  |  |  |  |  |  |  | 600 nM |  |  |  | 2800 nM
13 | N=C(N)c1ccc(Oc2ccc(NS(=O)(=O)c3cc(F)cc(F)c3)c(Oc3ccc(C(=N)N)cc3)n2)cc1 | 1200 nM |  |  |  |  |  |  |  |  |  |  | > 10000 nM |  | 
14 | N=C(N)c1ccc(Oc2ccc(C(=O)NC3CCN(C(=O)CCN)CC3)c(Oc3ccc(C(=N)N)cc3)n2)cc1 | 600 nM |  |  |  |  |  |  |  |  | 3600 nM | 2300 nM | > 10000 nM |  | 
